Biological target: Human factor D (Homo sapiens (Human), UniProt P00746)
Assay: Human Factor D Assay
Type: biochemical
Method: The assay of Example 8 was used to determine the IC50's of the compounds. Other standard factor D inhibition assays are also available.
Example 8. Human Factor D Assay
Human factor D (purified from human serum, Complement Technology, Inc.) at 80 nM final concentration is incubated with test compound at various concentrations for 5 minutes at room temperature in 50 mM Tris, 1M NaCl, pH 7.5. A synthetic substrate Z-L-Lys-SBzl and DTNB (Ellman's reagent) are added to final concentrations of 100 μM each. The increase in color is recorded at OD405 nm in a microplate in kinetic mode over 30 minutes with 30 second time points in a spectrofluorimeter. IC50 values are calculated by non-linear regression from the percentage of inhibition of complement factor D activity as a function of test compound concentration.

Human factor D, sequence (P00746 26-253): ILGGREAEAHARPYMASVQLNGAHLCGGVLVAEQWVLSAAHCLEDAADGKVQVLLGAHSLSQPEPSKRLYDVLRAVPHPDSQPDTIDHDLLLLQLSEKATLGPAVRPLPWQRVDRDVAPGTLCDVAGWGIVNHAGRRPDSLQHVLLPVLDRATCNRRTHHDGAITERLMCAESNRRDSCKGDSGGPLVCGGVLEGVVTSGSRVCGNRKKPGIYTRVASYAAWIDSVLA

With `CC(=O)c1cn(CC(=O)N2C[C@H](F)C[C@H]2C(=O)Nc2cccc(Br)c2)c2ccc(Oc3ncc(Br)cn3)cc12` [Compound 35] the IC50 was under 1000 nM.

Source: patent US10550140B2 (Achillion Pharmaceuticals, Inc., priority 2014, dated 2020)
